Like-named read-outs stand apart in the source and are kept apart here.

Data set [1] relates to mice. The experiment in a line: Central anticholinergic: oxotremorine tremors in mice. The conditions noted are these: Mus musculus, ip, 1 h, read-out: ED-100, central anticholinergic.
Text: No tremor equals 0, mild tremor equals 1 and strong tremor equals 2. Maximum score--3 mice×2 equals 6. Scores less than 4 (<4) indicate activity.
In data set [2] the test system is spontaneously hypertensive rats (SHR). Briefly: Antihypertensive: blood pressure (tail cuff) in spontaneously hypertensive rats (SHR). The format is in vivo, rat. Particulars: for inhibition in vivo at 100 mg/kg / ED100: Rattus norvegicus; for inhibition in vivo at 100 mg/kg: 6 hr. after a 100 mg/kg oral dose, significance >10, read-out: Antihypertensive: percent decrease in systolic blood pressure in spontaneously hypertensive rats; for ED100: po, read-out: ED-100, antihypertensive. On the procedure:
Blood pressure was measured indirectly (tail cuff) in unanesthetized, unheated spontaneously hypertensive rats (SHR) before and 2, 4, and 6 hours after p.o. dosing. Reduction in mean pressure by more than 10% (>10) at any two consecutive measurement times after dosing indicates antihypertensive activity.

The test system of data set [3] is rats. Briefly: Bradycardia: heart rate by EKG in rats. It is filed as in vivo, rat. The conditions noted are these: for inhibition in vivo at 5 mg/kg / ED100: Rattus norvegicus; for inhibition in vivo at 5 mg/kg: 0.75 h, 45 min. after a 5 mg/kg oral dose in rats, significance >10, read-out: B = Bradycardiac: percent decrease in heart rate; for ED100: po, rats, reference compounds, read-out: ED-100, bradycardia. On the procedure:
[…] Decrease in heart rate by more than 10% (>10) is considered a bradycardic effect.
Percent decrease in heart rate 45 min. after a 5
mg/kg oral dose in rats.

The subject of data set [4] is rats. Briefly: Antiulcer: stress induced gastric ulcers in rats. It is filed as in vivo, rat. The conditions noted are these: for inhibition in vivo at 50 mg/kg / ED100: Rattus norvegicus; for inhibition in vivo at 50 mg/kg: 4 hr. following a 50 mg/kg oral dose in rats, significance >60, read-out: U = Antiulcerative: percent inhibition of stress ulcers; for Antiulcer effect, in words: rat, in vivo; for ED100: po, read-out: ED-100, antiulcer. On the procedure: Fasted rats were dosed, p.o., 30 minutes before immobilization in wire mesh and partial immersion in water for 4 hours. Inhibition of the resulting stress induced gastric ulcers by more than 60% (>60) indicates activity.
^6 U = Antiulcerative. Percent inhibition of stress ulcers 4 hr.
following a 50 mg/kg oral dose in rats.

For data set [5], the system named is mice. The experiment in a line: Antiarrhythmic: chloroform-induced cardiac arrhythmia in mice. It is filed as in vivo, mouse. Particulars: for A = Antiarrythmic: mouse hearts fibrillating (of 3): 15 min. after a 200 mg/kg intraperitoneal dose, significance <2; for ED100: Mus musculus, ip, read-out: ED-100, antiarrhythmic. On the procedure:
^2 A = Antiarrythmic. Less than 2/3 mouse hearts fibrillating 15 min.

Data set [6] has as its system mice. Briefly: Acute toxicity / autonomic effects observation. Particulars: mouse, in vivo. How it is done: Mice were dosed at 300 mg/kg, per oral (p.o.) and […], interperitoneal (i.p.) for observation of any acute toxic symptoms or autonomic effects during the subsequent 72 hours. If none were noted, pharmacological evaluation proceeded employing doses and concentrations for each test based on appropriate multiples of doses required by suitable reference compounds. If acute toxicity was observed initially, the minimal toxic dose was determined and pharmacological screening doses were reduced proportionately.

Data set [7] concerns hypercholesterolemic mice. The experiment in a line: Hypocholesterolemic: serum cholesterol in hypercholesterolemic mice. Particulars: Mus musculus, hypercholesterolemic mice; for inhibition in vivo at 200 mg/kg: 2 oral doses of 200 mg/kg 20 hr. apart, significance >20, read-out: C = Hypocholesterolemic: percent decrease in serum cholesterol. The format is in vivo, mouse. How it is done:
Mice made hypercholesterolemic by being fed a high cholesterol-cholic acid diet for 7 days were dosed on the sixth and seventh days, p.o. After fasting overnight, reduction in serum cholesterol concentration by more than 15% (>15) from hypercholesterolemic control mice indicates activity.
^4 C = Hypocholesterolemic. Percent decrease in serum cholesterol in
hypercholesterolemic mice given 2 oral doses of 200 mg/kg drug candidate

As for `N[C@@H]1C[C@H]1c1ccccc1` (relative stereo) [tranylcypromine], in the data set with mice [1], the ED100 was > 25 mg/kg.
`CC1(C)CCCC(C)(C)N1CC1=CC(=O)N(c2cccc(SC(F)(F)F)c2)C1` [Compound 2, N-[3'-trifluoromethylthiophenyl]-4-[2",2",6",6"tetramethylpiperidino]methylpyrrolid-3-en-2-one]: the inhibition in vivo at 100 mg/kg in data set [2] was found to be 14%. Moreover, the inhibition in vivo at 5 mg/kg in the data set with rats [3] turned out to be 6%. For the same compound, the inhibition in vivo at 50 mg/kg in the data set with rats [4] is 38%. For the same compound, the “A = Antiarrythmic: mouse hearts fibrillating (of 3)” value (“A = Antiarrythmic” below) in the data set with mice [5] came to 3. Moreover, in the data set on mice [6], the “Acute toxicity / toxic effects” value is reported as “apparent absence” and the “Autonomic effect / autonomic inhibition” value is given as “apparent absence of autonomic effect”. For the same compound, the inhibition in vivo at 200 mg/kg in data set [7] was determined as 0%.
On to `CC1(C)CCCC(C)(C)N1CC1=CC(=O)N(c2cc(C(F)(F)F)cc(C(F)(F)F)c2)C1` [Compound 3], for which the inhibition in vivo at 100 mg/kg in data set [2] is 32%. In data set [2] (p.o.), the “Antihypertensive activity, duration” value is recorded as “perhaps of long duration”; the “Antihypertensive activity, onset / comparison in words” value was “somewhat slow in onset”; the “Dose with borderline antihypertensive result” value was 10 mg/kg. In addition, the inhibition in vivo at 5 mg/kg in the data set on rats [3] is 14%. The inhibition in vivo at 50 mg/kg in the data set on rats [4] worked out at 38%. In addition, the “A = Antiarrythmic” value with mice [5] was determined as 3. Further, the “Autonomic effect / autonomic inhibition” value in the data set on mice [6] is “No evidence of autonomic inhibition”. The inhibition in vivo at 200 mg/kg in data set [7] was determined as 0%.
As to `CC1(C)CCCC(C)(C)N1CC1=CC(=O)N(c2ccc(F)cc2)C1` [Compound 5], the inhibition in vivo at 100 mg/kg in data set [2] was 26%. Also, in data set [2] (p.o.), the “Dose with borderline antihypertensive result” value stood at 5 mg/kg. Moreover, in the data set with rats [3], the inhibition in vivo at 5 mg/kg worked out at 24%. Besides, in the data set with rats [4], the inhibition in vivo at 50 mg/kg was determined as 75% and the “Antiulcer effect, in words” value is recorded as “noted at antihypertensive doses”. The “A = Antiarrythmic” value in the data set on mice [5] is 0. In the data set on mice [5] (mouse, in vivo), the “Antiarrhythmic effect, in words” value is recorded as “noted at antihypertensive doses”. In addition, the “Autonomic effect / autonomic inhibition” value in the data set with mice [6] was “absence of evidence of autonomic inhibition”. Moreover, the inhibition in vivo at 200 mg/kg in data set [7] amounted to 0%.
For the compound `CC1(C)CCCC(C)(C)N1CC1=CC(=O)N(c2cccc([N+](=O)[O-])c2)C1` [Compound 11], in data set [2], the inhibition in vivo at 100 mg/kg was 27%. For the same compound, the “Antihypertensive activity, onset / comparison in words” value in data set [2] (p.o.) was “Mild, rather slow onset”. In addition, the inhibition in vivo at 5 mg/kg with rats [3] came to 5%. Also, in the data set on rats [3] (rat, in vivo), the “Bradycardic effects, in words” value was “absence of bradycardia”. The inhibition in vivo at 50 mg/kg in the data set on rats [4] came to 25%. The “A = Antiarrythmic” value with mice [5] is given as 3. Moreover, the “Autonomic effect / autonomic inhibition” value with mice [6] is on record as “absence”. The inhibition in vivo at 200 mg/kg in data set [7] worked out at 0%.
For the compound `CC1(C)CCCC(C)(C)N1CC1=CC(=O)N(c2cccc(Br)c2)C1` [Compound 14], the inhibition in vivo at 100 mg/kg in data set [2] was 4%. Moreover, the inhibition in vivo at 5 mg/kg with rats [3] was determined as 0%. Moreover, in the data set on rats [4], the inhibition in vivo at 50 mg/kg came to 50% and the “Antiulcer effect, in words” value was “activity appears to be weaker than with Compound 13”. Further, the “A = Antiarrythmic” value with mice [5] was 3. Also, the inhibition in vivo at 200 mg/kg in data set [7] amounted to 5%.
As for `C[C@H](CS)C(=O)N1CCC[C@H]1C(=O)O` [captopril, reference compound], in data set [2] (SHR, reference compounds), the ED100 was determined as 100 mg/kg.
Turning to `CC1(C)[C@@H](OC(=O)CCC(=O)O)CC[C@]2(C)[C@H]3C(=O)C=C4[C@@H]5C[C@@](C)(C(=O)O)CC[C@]5(C)CC[C@@]4(C)[C@]3(C)CC[C@@H]12` [carbenoxolone, reference compound], in the data set on rats [4] (rats, reference compounds), the ED100 was > 100 mg/kg.
Turning to `CNC1=Nc2ccc(Cl)cc2C(c2ccccc2)=[N+]([O-])C1` [chlordiazepoxide, reference compound], the ED100 with rats [4] turned out to be 100 mg/kg.
On to `CN(C)CCCN1c2ccccc2Sc2ccc(Cl)cc21` [chlorpromazine, reference compound], for which the figures for the ED100 in the data set with mice [1] and in the data set with rats [4] were 2.5 mg/kg and 20 mg/kg, respectively.
Take `CCOC(=O)C(C)(C)Oc1ccc(Cl)cc1` [clofibrate, reference compound]: in data set [7] (po, reference compounds, read-out: ED-100, hypocholesterolemic), the ED100 worked out at 400 mg/kg.
Take `Clc1cccc(Cl)c1N=C1NCCN1` [clonidine, reference compound]: the ED100 in data set [2] was < 5 mg/kg; in the data set on rats [3] it was 0.5 mg/kg.
For the compound `CNCCCN1c2ccccc2CCc2ccccc21` [desipramine], the ED100 in the data set with mice [1] was > 25 mg/kg.
Turning to `COc1ccc([C@@H]2Sc3ccccc3N(CCN(C)C)C(=O)[C@@H]2OC(C)=O)cc1` [diltiazem, reference compound], the ED100 with rats [3] came out at 10 mg/kg; in the data set on mice [5] (mice, reference compounds) it was 50 mg/kg.
Regarding `CC(C)N(CCC(C(N)=O)(c1ccccc1)c1ccccn1)C(C)C` (stereo not shown) [disopyramide, reference compound], the ED100 with mice [5] (mice, reference compounds) was 50 mg/kg.
As to `O=C(CCCN1CCC(O)(c2ccc(Cl)cc2)CC1)c1ccc(F)cc1` [haloperidol], the ED100 in the data set with mice [1] was 10 mg/kg.
Consider `NNc1nncc2ccccc12` [hydralazine, reference compound], for which the ED100 in data set [2] came to 2.5 mg/kg.
With `CN(C)CCCN1c2ccccc2CCc2ccccc21` [imipramine], the ED100 in the data set with mice [1] was found to be 25 mg/kg.
Take `CC(CCc1ccccc1)NCC(O)c1ccc(O)c(C(N)=O)c1` (stereo not shown) [labetalol, reference compound]: the ED100 in data set [2] (SHR, reference compounds) was 50 mg/kg.
On to `CCN(CC)CC(=O)Nc1c(C)cccc1C` [lidocaine, reference compound], for which the ED100 in the data set on mice [5] turned out to be 50 mg/kg.
Turning to `C[C@](N)(Cc1ccc(O)c(O)c1)C(=O)O` [methyldopa, reference compound], in data set [2] (SHR, reference compounds), the ED100 was found to be 50 mg/kg.
On to `CCN(CC)CCNC(=O)c1cc(Cl)c(N)cc1OC` [metoclopramide], for which, in the data set on mice [1], the ED100 was > 100 mg/kg.
For `Cc1cccc(C)c1OCC(C)N` (stereo not shown) [mexilitine, reference compound], the ED100 in the data set with mice [5] (mice, reference compounds) is 50 mg/kg.
Regarding `COC(=O)C1=C(C)NC(C)=C(C(=O)OC)C1c1ccccc1[N+](=O)[O-]` [nifedipine, reference compound], the ED100 was determined as 50 mg/kg in data set [2] (SHR, reference compounds) and 25 mg/kg in the data set on mice [5] (mice, reference compounds).
Turning to `Cc1ccc(N(CC2=NCCN2)c2cccc(O)c2)cc1` [phentolamine, reference compound], the ED100 in data set [2] (SHR, reference compounds) was 25 mg/kg.
For `CC(C)NCC(O)COc1cccc2[nH]ccc12` (stereo not shown) [pindolol, reference compound], the ED100 with mice [5] was 50 mg/kg.
In the case of `COc1cc2nc(N3CCN(C(=O)c4ccco4)CC3)nc(N)c2cc1OC` [prazosin, reference compound], in data set [2] (SHR, reference compounds), the ED100 is 1 mg/kg.
On to `CCN(CC)CCOC(=O)c1ccc(N)cc1` [procaine, reference compound], for which, in the data set with mice [5], the ED100 is 100 mg/kg.
As to `CC(C)NCC(O)COc1cccc2ccccc12` (stereo not shown) [propranolol, reference compound], the ED100 with rats [3] and in the data set on mice [5] was 40 mg/kg throughout.
On to `NC(=S)Cc1ccccn1` [pyridyl-2-thioacetamide, reference compound], for which the “ED-100, antiulcer” value with rats [4] (p.o., rats, reference compounds) was 50 mg/kg.
Turning to `N=C(N)NN=Cc1c(Cl)cccc1Cl` [quanabenz, reference compound], the results for the ED100 (in data set [2]; with rats [3]) were < 6 mg/kg and 2.5 mg/kg, respectively.
Consider `C=CC1CN2CCC1CC2C(O)c1ccnc2ccc(OC)cc12` (stereo not shown) [qunidine, reference compound], for which, in the data set on mice [5], the ED100 came to 100 mg/kg.
As to `COC(=O)[C@H]1[C@H]2C[C@@H]3c4[nH]c5cc(OC)ccc5c4CCN3C[C@H]2C[C@@H](OC(=O)c2cc(OC)c(OC)c(OC)c2)[C@@H]1OC` [reserpine, reference compound], the ED100 in data set [2] (SHR, reference compounds) came out at 25 mg/kg; with rats [3] it was 5 mg/kg.
For `CCN1CCCC1CNC(=O)c1cc(S(N)(=O)=O)ccc1OC` (stereo not shown) [sulpiride], in the data set with mice [1], the ED100 was > 100 mg/kg.
The same measure, in the same setting: with `CCn1c2c(c3ccccc31)CCSC2(C)CCN(C)C` (stereo not shown) [tandamine] the figure was > 50 mg/kg; with `CSc1ccc2c(c1)N(CCC1CCCCN1C)c1ccccc1S2` (stereo not shown) [thioridazine], 10 mg/kg.
`COc1ccc(CCN(C)CCCC(C#N)(c2ccc(OC)c(OC)c2)C(C)C)cc1OC` (stereo not shown) [verapamil, reference compound]: in the data set on mice [5], the ED100 was 50 mg/kg.
`CS(=O)(=O)c1ccc(-c2cn3ccccc3n2)cc1` [zolimidine, reference compound]: in the data set on rats [4] (rats, reference compounds), the ED100 was > 100 mg/kg.
